In experiment [1] the target is T1, human D4 receptor (Homo sapiens, UniProt P21917).
T1 sequence (P21917 1-419): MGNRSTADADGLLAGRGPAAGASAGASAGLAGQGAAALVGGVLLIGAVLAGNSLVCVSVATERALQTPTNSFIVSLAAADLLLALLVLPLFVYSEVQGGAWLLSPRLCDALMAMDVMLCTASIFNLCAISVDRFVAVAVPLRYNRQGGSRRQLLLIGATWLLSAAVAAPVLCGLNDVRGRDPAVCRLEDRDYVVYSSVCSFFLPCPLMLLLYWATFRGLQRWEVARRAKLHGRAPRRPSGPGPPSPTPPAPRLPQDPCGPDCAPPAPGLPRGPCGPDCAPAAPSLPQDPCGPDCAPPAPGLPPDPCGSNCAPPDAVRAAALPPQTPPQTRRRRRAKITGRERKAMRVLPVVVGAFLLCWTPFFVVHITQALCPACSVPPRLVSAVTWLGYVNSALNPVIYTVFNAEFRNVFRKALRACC
Kind of experiment: D4 receptor binding, 3H-YM 09151-2, CHO cell membranes. The note with it: recombinant human D4 in CHO cells, 0.1 nM 3H-YM 09151-2, 25° C. The procedure: (§1) The following assay is a standard assay for determining the binding affinity of compounds to dopamine D4 and D2 receptors.
(§2) Pellets of Chinese hamster ovary (CHO) cells containing recombinantly produced primate D2, human D4 and human α1 receptors are used for the assays. The sample is homogenized in 100 volumes (w/vol) of 0.05 M Tris HCl buffer containing 120 mM NaCl, 5 mM MgCl2 and 1 mM EDTA at 4° C. and pH 7.4. The sample is then centrifuged at 30,000×g, resuspended and rehomogenized. The sample is then recentrifuged at 30,000×g, the supernatant is removed and the final tissue sample is frozen until it is needed. The tissue is resuspended 1:20 (wt/vol) in 0.05 M Tris HCl buffer containing 120 mM NaCl.
(§3) Incubations for dopaminergic binding are carried out at 25° C. and contain 0.4 ml of tissue sample, 0.1 nM ^3H-YM 09151-2 (Nemonapride, cis-5-Chloro-2-methoxy-4-(methylamino)-N-(2-methyl-2-(phenylmethyl)-3-pyrrolidinyl)benzamide) and the compound of interest in a total incubation of 1.0 ml. Nonspecific binding is defined as that binding found in the presence of 1 μM spiperone; without further additions, nonspecific binding is less than 20% of total binding.

Experiment [2] concerns the target primate D2 receptor (UniProt P52702). Kind of experiment: D2 receptor binding, 3H-YM 09151-2, CHO cell membranes. The note with it: recombinant primate D2 in CHO cells, 0.1 nM 3H-YM 09151-2, 25° C. As for the experimental part:
as §1, §2, §3

The test system of experiment [3] is human α1 receptor. Nature of the experiment: α1 receptor binding, 3H-prazosine, CHO cell membranes. The note with it: recombinant human α1 in CHO cells. The procedure: as §2
Norepinephrine al binding is carried out using ^3H-prazosine as the ligand. Nonspecific binding is determined in the presence of 1 μM prazosine. Preferably, dopamine antagonists should not interact with the α1 adrenergic receptor, as interactions with this G-coupled protein receptor give rise to types of hypotension.

SMILES strings stand for the structures.

Chain of primate D2 receptor (P52702 whole entry): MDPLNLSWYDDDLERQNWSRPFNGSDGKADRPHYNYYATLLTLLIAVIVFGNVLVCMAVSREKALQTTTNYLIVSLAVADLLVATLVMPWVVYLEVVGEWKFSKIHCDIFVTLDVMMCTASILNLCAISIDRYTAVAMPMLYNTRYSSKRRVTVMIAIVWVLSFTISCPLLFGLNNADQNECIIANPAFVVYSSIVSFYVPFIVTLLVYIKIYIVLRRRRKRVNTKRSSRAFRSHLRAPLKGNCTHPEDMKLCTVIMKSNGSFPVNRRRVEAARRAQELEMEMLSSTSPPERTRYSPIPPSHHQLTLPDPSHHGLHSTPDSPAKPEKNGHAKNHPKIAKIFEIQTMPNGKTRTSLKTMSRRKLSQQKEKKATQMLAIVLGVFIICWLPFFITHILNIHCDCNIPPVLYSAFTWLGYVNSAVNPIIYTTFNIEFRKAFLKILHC

Consider `CC1(C)Cc2cccc3c2N1C(=O)C(N1CCN(Cc2ccc(Cl)cc2)CC1)CC3` (centres unmarked) [Compound 2, 5-[(4-chlorobenzyl)piperazin-1-yl]-2,2-dimethyl-1,2,4,5,6,7-hexahydro-4-oxo-pyrrolo-[3,2,1-jk][1]benzazepine], for which, in experiment [1], the Ki was found to be 0.019 µM.

Turning to `CC1Cc2cccc3c2N1C(=O)C(N1CCN(Cc2ccc(Cl)cc2)CC1)CC3` (mixture of isomers) [Compound 4], the figures for the Ki in experiment [1], in experiment [2] and in experiment [3] were 0.009 µM, 0.05 µM and above 1 µM, respectively.

On to `Cc1ccc(CN2CCN(C3CCc4cccc5c4N(CC5)C3=O)CC2)cc1` (centres unmarked) [Compound 1, 5-[(4-methylbenzyl)piperazin-1-yl]-1,2,4,5,6,7-hexahydro-4-oxo-pyrrolo-[3,2,1-jk][1]benzazepine], for which, in experiment [1], the Ki worked out at 0.004 µM.

These data come from US6403591B1, “1-azatricyclic-4-benzylpiperazines” (Neurogen Corporation, priority 1999, dated 2002).
